In assay [1] the test system is SA4247 Salmonella typhi cells expressing mutant Arabidopsis thaliana EPSPS. Nature of the assay: Glyphosate resistance assay (growth by optical density at 600 nm). It is filed as cell-based. The settings on record: 17 mM or 0 mM glyphosate, liquid M9 medium, OD 600 nm every hour for seven hours, compared to wild-type cells (FIG. 6).
Description: Electrocompetent cells of SA4247, a LacZ—Salmonella typhi strain, were prepared according to well known procedures (see Current Protocols in Molecular Biology, (Wiley and Sons, Inc.)). 30 μl of SA4247 competent cells were electroporated with 20 ng of each plasmid DNA encoding Arabidopsis wild-type and mutant EPSPS proteins, Bacillus wild-type EPSPS, along with a mock transfection as a control. The settings for electroporation were 25 μF, 2.5 KV and 200 ohms. After electroporation, the cells were transferred into 15 mls culture tube and supplemented with 970 μl of SOC medium. The cultures were incubated for 1½ hours at 37° C. at 225 rpm. 501 of each culture were plated onto LB plates containing 17 μg/ml chloramphenicol (in duplicates) and incubated overnight at 37° C. On the following day, 5 colonies of each plate were picked and transferred onto M9 plates and incubated overnight at 37° C.
Colonies from the overnight incubation on solid M9 were inoculated into 4 ml of liquid M9 medium and grown overnight at 37° C. On the following day, 25 ml of liquid M9 medium containing chloramphenicol, IPTG and 17 mM or 0 mM Glyphosate (Aldrich, 33775-7) were inoculated with 1-2 mls of each overnight culture (in duplicates), the starting OD (at 600 nm) was measured and all the cultures were normalized to start at the same OD. An OD measurement was taken every hour for seven hours. […]
The target of assay [2] is wild-type EPSPS from E. coli (Escherichia coli, UniProt P0A6D3). The settings on record: read-out: apparent Km for PEP; cited from earlier work.
Sequence of wild-type EPSPS from E. coli (P0A6D3 whole entry): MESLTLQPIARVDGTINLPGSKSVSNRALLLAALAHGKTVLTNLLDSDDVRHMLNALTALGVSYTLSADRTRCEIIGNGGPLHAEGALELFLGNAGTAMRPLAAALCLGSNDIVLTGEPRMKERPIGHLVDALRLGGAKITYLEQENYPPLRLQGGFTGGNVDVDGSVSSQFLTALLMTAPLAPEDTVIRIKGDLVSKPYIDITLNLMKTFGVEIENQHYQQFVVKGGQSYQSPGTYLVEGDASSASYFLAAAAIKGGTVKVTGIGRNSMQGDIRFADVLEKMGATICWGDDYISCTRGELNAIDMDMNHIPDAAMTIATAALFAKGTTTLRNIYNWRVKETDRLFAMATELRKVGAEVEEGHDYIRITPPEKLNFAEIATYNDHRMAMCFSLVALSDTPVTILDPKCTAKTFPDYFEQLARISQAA

As to `O=C(O)CNCP(=O)(O)O` [glyphosate, N-phosphonomethylglycine], the “growth rate of cells containing a mutation in the EPSPS gene” value in assay [1] is on record as “substantially similar growth rate in the absence or presence of glyphosate”.
Consider `C=C(OP(=O)(O)O)C(=O)O` [PEP, phosphoenolpyruvic acid], for which the Michaelis-Menten constant (Km) in assay [2] is 10 µM.

One may read the Km as the concentration of substrate that gives half-maximal velocity.
